# From patent US20080207640A1, “Method of treating cell proliferative disorders using growth hormone secretagogues” (Sapphire Therapeutics, priority 2007, published 2008)
# Where “and” joins values, the source holds several entries; their conditions need not be identical. Identical values can stand only once.
# How the values were obtained:
# Assay type in all cases: in vivo, human
# [1] = system: IGF-1; assay: Example 1 double blind, placebo controlled, randomized study: IGF-1 levels
# Description: (§1) A double blind, placebo controlled, randomized study was designed to investigate the ability of growth hormone secretagogues to be used for the treatment of cell proliferative disorders.
# (§2) Subjects were separated in to two groups: the placebo group and the RC-1291 group. The RC-1291 group received 50 mg of RC-1291 in two 25 mg capsules daily. The capsules were microcrystalline cellulose, magnesium stearate and RC-1291 HCl (25 mg) in a hard gelatin capsule. The placebo group received two placebo capsules daily. The placebo capsule was microcrystalline cellulose in a hard gelatin capsule.
# (§3) One hour before breakfast subjects were administered the two capsules after fasting during the night.
# (§4) At various points over the course of the three month study, levels of IGFBP-3 and IGF-1 were measured in both the placebo and RC-1291 groups.
# [2] = system: IGFBP-3; assay: Example 1 double blind, placebo controlled, randomized study: IGFBP-3 levels
# Description: as §1, §2, §3, §4
# [3] = system: IGF-1; assay: Example 2 second double blind, placebo controlled, randomized study: serum IGF-1; conditions: for IGF-1: serum
# Description: (§5) A second double blind, placebo controlled, randomized study was designed to investigate the ability of growth hormone secretagogues to be used for the treatment of cell proliferative disorders.
# (§6) Subjects were separated into groups and administered a placebo or RC-1291 (Formula III). Each group was administered the appropriate number of capsules. The capsules were microcrystalline cellulose, magnesium stearate and RC-1291 HCl (25 mg) in a hard gelatin capsule. The placebo capsule was microcrystalline cellulose in a hard gelatin capsule. The RC-1291 groups received 50 mg or 100 mg of RC-1291 daily.
# (§7) Serum was obtained at office visits, clearly labeled, and stored frozen at −20° C. prior to shipment on dry ice to CRL, Lenexa, Kans. for analysis. Samples were assayed for IGF-1 and IGFBP-3.
# [4] = system: IGFBP-3; assay: Example 2 second double blind, placebo controlled, randomized study: serum IGFBP-3; conditions: for IGFBP-3: serum
# Description: as §5, §6, §7
# [5] = Example 3 cancer cachexia: lean body mass and total body mass by DEXA, subjects of Example 1; conditions: FIG. 11
# Description: (§8) The placebo controlled, randomized studies described above were used to investigate the ability of growth hormone secretagogues to treat subjects having cancer cachexia.
# (§9) Total body mass and lean body mass were measured for subjects described in Example 1 (see FIGS. 10, and 11, respectively.) Lean body mass and total body mass were measured by dual-energy x-ray absorptiometry (DEXA). Total body weight was measured for subjects described in Example 2 (see, FIG. 12).
# [6] = Example 3 cancer cachexia: total body weight, subjects of Example 2; conditions: 50 and 100 mg, FIG. 12
# Description: as §8, §9
# [7] = 50 mg RC-1291 daily, capsules, at 4 weeks, N = 32
# [8] = 50 mg RC-1291 daily, capsules, at 8 weeks, N = 32
# [9] = 50 mg RC-1291 daily, capsules, at 12 weeks, N = 32
# [10] = Example 1, 50 mg daily, vs placebo
# [11] = Example 2, 50 mg or 100 mg daily, vs placebo
smiles,measurement,setting,value
CN(C)N(C)C(=O)[C@@]1(Cc2ccccc2)CCCN(C(=O)[C@@H](Cc2c[nH]c3ccccc23)NC(=O)C(C)(C)N)C1 [RC-1291],IGF-1 change from baseline (nM) At 4 weeks,[1]; [7],6.626 nM
same,IGF-1 change from baseline (nM) At 8 weeks,[1]; [8],4.729 nM
same,IGF-1 change from baseline (nM) At 12 weeks,[1]; [9],5.046 nM
same,levels of IGF-1 (in words),[1]; [10],raises the levels of both IGFBP-3 and IGF-1 in a statistically significant manner
same,IGFBP-3 change from baseline (nM) At 4 weeks,[2]; [7],26.89 nM
same,IGFBP-3 change from baseline (nM) At 8 weeks,[2]; [8],17.7 nM
same,IGFBP-3 change from baseline (nM) At 12 weeks,[2]; [9],20.66 nM
same,"effects on IGFBP-3 relative to effects on IGF-1, on a molar basis","[2]; Example 1, 50 mg daily",greater than 3 fold
same,levels of IGFBP-3 (in words),[2]; [10],raises the levels of both IGFBP-3 and IGF-1 in a statistically significant manner
same,IGF-1,"[3]; 50 mg daily, week 1",40.69 ng/mL and 5.32 nM
same,IGF-1,"[3]; 50 mg daily, week 2",57 ng/mL and 7.45 nM
same,IGF-1,"[3]; 50 mg daily, week 4",46.5 ng/mL and 6.08 nM
same,IGF-1,"[3]; 100 mg daily, week 1",80.25 ng/mL and 10.49 nM
same,IGF-1,"[3]; 100 mg daily, week 2",76.25 ng/mL and 9.97 nM
same,IGF-1,"[3]; 100 mg daily, week 4",73.4 ng/mL and 9.60 nM
same,levels of IGF-1 (in words),[3]; [11],raised the levels of both IGFBP-3 and IGF-1 in a statistically significant manner
same,IGFBP-3,"[4]; 50 mg daily, week 1",580 ng/mL and 20.19 nM
same,IGFBP-3,"[4]; 50 mg daily, week 2",540 ng/mL and 18.79 nM
same,IGFBP-3,"[4]; 50 mg daily, week 4",610 ng/mL and 21.23 nM
same,IGFBP-3,"[4]; 100 mg daily, week 1",900 ng/mL and 31.32 nM
same,IGFBP-3,"[4]; 100 mg daily, week 2",670 ng/mL and 23.32 nM
same,IGFBP-3,"[4]; 100 mg daily, week 4",970 ng/mL and 33.76 nM
same,levels of IGFBP-3 (in words),[4]; [11],raised the levels of both IGFBP-3 and IGF-1 in a statistically significant manner
same,change in lean body mass (in words),[5],gained lean body mass and total body weight
same,change in total body weight (in words),[6],gained lean body mass and total body weight
